Test [1] deals with guard cells. Kind of test: time-resolved cameleon [Ca2+]cyt imaging of ABA-induced [Ca2+]cyt elevations. In kind it is cell-based, Arabidopsis thaliana. The method, then: Due to the basal regulation of anion and K^+ channels in abh1 without addition of exogenous ABA, experiments were pursued to analyze whether mechanisms lying further upstream confer ABA hypersensitivity in abh1. […] Therefore we directly investigated whether abh1 modulates ABA-induced [Ca^2+]cyt elevations in time-resolved cameleon [Ca^2+]cyt imaging experiments (G. J. Allen et al, The Plant J., 19:735 (1999)). Stomata were opened by exposing plants for 12 hours to 95% humidity.

Test [2] relates to guard cells. In words: stomatal closure in response to ABA. Particulars: abh1, stomata opened 12 hours at 95% humidity. The test is classed as cell-based, Arabidopsis thaliana. The protocol:
ABH1 is expressed in guard cells. To determine whether ABH1 modulates early ABA signal transduction elements, stomatal closure in response to ABA was investigated. Stomata were opened by exposing plants for 12 hours to high humidity (95%). Under these conditions stomatal apertures were similar in wild-type and abh1 (2.03±0.19 μm, wild-type, n=60; 1.92±0.21 μm, abh1, n=60; P>0.38). Stomatal closure in abh1 was ABA hypersensitive compared to wild-type (P<0.001). When stomatal apertures were measured in leaves harvested directly from plants grown under lower humidity (40%), without exogenous ABA addition, stomatal apertures of abh1 were smaller than those of wild-type plants (P<0.001), possibly resulting from a hypersensitive response to endogenous ABA.

The next test has as its system abh1 mutant. In words: seed germination, hypocotyl and root growth assays in the presence of hormones. The test is classed as in vivo, Arabidopsis thaliana. Particulars: abh1, hormone concentrations from 10 nM to 100 μM. The method, then: Other hormone signaling mutants were analyzed in control experiments: axr1–3 (auxin insensitive) (C. Lincoln et al., Plant Cell, 2:1071(1990)), ein2-1 (ethylene insensitive) (J. M. Alonso et al., Science, 284:2148 (1999)), gai-1 (GA insensitive) (M. Koornneef et al., Physiol Plant., 65:33 (1985)), era1-2 (ABA hypersensitive) (S. Cutler et al., Science, 273:1239 (1996))), and jar1-1 (JA insensitive) (P. E. Staswick et al., Proc. Natl. Acad. Sci. U.S.A., 89:6837 (1992)).

Test [3] deals with Arabidopsis thaliana seeds. Kind of test: seed germination on minimum medium with ABA. In kind it is in vivo. Particulars: 0.3 μM ABA. The method, then: This was carried out using Arabidopsis lines (Columbia background, T3 seeds), which were transformed with a T-DNA (SK1015) (D. Weigel et al., Plant Physiol., 122:1003 (2000)), and plated on minimum medium (0.25×MS) with 0.3 μM ABA. After 4 days at 4° C., seeds were transferred to 28° C., continuous light. After 5 more days, germination was analyzed. Non-germinated seeds were transferred to soil and further analyzed.

In the case of `CC1=CC(=O)CC(C)(C)[C@@]1(O)/C=C/C(C)=C\C(=O)O` [ABA, abscisic acid], in the test with guard cells [1] (abh1, 0.5 μM ABA), the “cells responding with one [Ca2+]cyt elevation” value turned out to be 19%, the “cells showing multiple repetitive [Ca2+]cyt increases” value amounted to 45%, the “cells showing no response” value is given as 36% and the “guard cells showing [Ca2+]cyt increases” value is 64%. In the test with guard cells [1] (wild-type, 0.5 μM ABA), the “average peak increase of [Ca2+]cyt” value was determined as 170 ± 25 nM, the “guard cells showing [Ca2+]cyt increase (typically only one)” value came out at 44% and the “guard cells showing no [Ca2+]cyt increase” value is reported as 56%. Besides, the “stomatal closure sensitivity compared to wild-type” value with guard cells [2] is given as “hypersensitive”. Besides, the “phenotypic response (sensitivity) of abh1 mutant to hormone” value with abh1 mutant is listed as “showed phenotypic responses only to ABA”. The germination result in test [3] (abh1 mutant seeds) is on record as “inhibited”. Moreover, the germination entry in test [3] (wild-type seeds) is “allowed germination”.

Regarding `C=C1C[C@]23C[C@@]1(O)CC[C@H]2[C@@]12C=C[C@H](O)[C@@](C)(C(=O)O1)[C@H]2[C@@H]3C(=O)O` [GA, gibberellic acid], the “phenotypic response (sensitivity) of abh1 mutant to hormone” value in the test on abh1 mutant is reported as “slightly reduced sensitivity”.

Values taken from US7199285B2, “Modulation of abscisic acid signal transduction in plants” (University of California, San Diego, priority 2000, dated 2007).
